Measured values from article PMC2999882 (Molecular pharmacology, 2008).
Where two headings read alike, the source gives them in different places.

Tests used:
[1] = biological target: T1, muscle type (α1β1εδ) nAChR (Homo sapiens, UniProt P02708+Q04844+Q07001); type: cell-based
5HT3 receptors [2] = biological target: T2, 5HT3 receptors (Homo sapiens, UniProt P46098); type: cell-based
T2 sequence (P46098 24-478): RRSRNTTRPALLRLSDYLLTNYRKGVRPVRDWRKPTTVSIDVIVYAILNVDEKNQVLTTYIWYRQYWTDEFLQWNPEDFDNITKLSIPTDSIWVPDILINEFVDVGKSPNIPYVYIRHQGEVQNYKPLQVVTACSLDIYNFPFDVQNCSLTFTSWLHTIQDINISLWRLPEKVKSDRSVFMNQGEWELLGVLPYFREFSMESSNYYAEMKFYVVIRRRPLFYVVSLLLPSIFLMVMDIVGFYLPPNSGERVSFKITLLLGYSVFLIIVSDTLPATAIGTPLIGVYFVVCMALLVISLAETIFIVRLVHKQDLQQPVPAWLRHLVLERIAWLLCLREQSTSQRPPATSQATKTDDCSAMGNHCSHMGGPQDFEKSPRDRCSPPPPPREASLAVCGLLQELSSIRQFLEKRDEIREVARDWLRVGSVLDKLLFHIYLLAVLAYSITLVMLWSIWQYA

[3] = biological target: T1, muscle type (α1β1εδ) nAChR; type: cell-based; remark: listed apart in the source
α4β2 nAChR [4] = biological target: T3, α4β2 nAChR (Homo sapiens, UniProt P17787+P43681); experiment: cell-based; type: cell-based
α7 nAChR [5] = biological target: α7 nAChR (Homo sapiens, UniProt P36544)
α4β2 nAChR [6] = biological target: T3, α4β2 nAChR; type: cell-based
5HT3 receptors [7] = biological target: T2, 5HT3 receptors; type: cell-based; remark: listed apart in the source
α3β4 nAChR = α3β4 nAChR (Homo sapiens, UniProt P30926+P32297)
5HT3 receptors [8] = biological target: T2, 5HT3 receptors; conditions: cited from earlier work
α7 nAChR [9] = conditions: binding and voltage-clamp experiments; ref Biton et al., 2007; cited from earlier work

Sequence of α7 nAChR (Homo sapiens, UniProt P36544) (P36544 23-502): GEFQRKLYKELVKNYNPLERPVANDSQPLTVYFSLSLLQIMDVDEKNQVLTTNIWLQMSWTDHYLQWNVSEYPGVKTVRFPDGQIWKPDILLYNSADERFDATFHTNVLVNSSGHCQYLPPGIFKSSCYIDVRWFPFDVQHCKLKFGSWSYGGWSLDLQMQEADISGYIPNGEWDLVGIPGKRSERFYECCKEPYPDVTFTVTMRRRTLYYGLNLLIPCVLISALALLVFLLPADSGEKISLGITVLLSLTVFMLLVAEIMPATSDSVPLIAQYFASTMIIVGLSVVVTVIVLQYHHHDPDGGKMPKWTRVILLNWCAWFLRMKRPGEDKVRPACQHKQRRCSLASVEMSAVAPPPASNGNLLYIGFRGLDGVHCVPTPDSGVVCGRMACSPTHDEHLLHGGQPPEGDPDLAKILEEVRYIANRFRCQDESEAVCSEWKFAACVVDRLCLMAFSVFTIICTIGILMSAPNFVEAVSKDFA
Sequence of α3β4 nAChR (P32297 32-505): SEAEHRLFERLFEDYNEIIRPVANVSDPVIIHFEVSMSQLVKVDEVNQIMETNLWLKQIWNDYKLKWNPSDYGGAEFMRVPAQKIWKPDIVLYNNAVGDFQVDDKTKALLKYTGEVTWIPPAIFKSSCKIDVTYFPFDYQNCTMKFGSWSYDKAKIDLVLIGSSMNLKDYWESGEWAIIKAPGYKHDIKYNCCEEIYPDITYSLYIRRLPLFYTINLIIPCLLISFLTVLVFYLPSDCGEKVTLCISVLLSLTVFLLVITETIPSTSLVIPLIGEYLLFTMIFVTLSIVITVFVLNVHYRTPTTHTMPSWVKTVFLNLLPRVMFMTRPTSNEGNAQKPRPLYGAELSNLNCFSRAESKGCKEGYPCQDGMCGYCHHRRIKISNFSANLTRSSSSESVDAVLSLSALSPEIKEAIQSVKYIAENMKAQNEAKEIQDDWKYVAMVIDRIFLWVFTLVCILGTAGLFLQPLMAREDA
Sequence of α3β4 nAChR (P30926 22-498): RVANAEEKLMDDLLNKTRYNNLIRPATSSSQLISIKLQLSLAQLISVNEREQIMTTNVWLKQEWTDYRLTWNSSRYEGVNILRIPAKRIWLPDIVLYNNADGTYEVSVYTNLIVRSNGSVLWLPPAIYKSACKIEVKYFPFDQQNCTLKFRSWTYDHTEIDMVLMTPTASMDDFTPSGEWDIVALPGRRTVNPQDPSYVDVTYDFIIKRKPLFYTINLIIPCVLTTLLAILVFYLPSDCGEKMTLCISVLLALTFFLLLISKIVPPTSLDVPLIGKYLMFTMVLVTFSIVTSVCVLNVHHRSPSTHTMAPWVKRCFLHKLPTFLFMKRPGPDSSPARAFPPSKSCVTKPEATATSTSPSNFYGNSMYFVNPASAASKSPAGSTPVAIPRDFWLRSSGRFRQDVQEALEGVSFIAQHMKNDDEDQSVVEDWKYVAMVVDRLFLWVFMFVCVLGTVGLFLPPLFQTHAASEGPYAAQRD
T3 sequence (P43681 29-627 limits assumed): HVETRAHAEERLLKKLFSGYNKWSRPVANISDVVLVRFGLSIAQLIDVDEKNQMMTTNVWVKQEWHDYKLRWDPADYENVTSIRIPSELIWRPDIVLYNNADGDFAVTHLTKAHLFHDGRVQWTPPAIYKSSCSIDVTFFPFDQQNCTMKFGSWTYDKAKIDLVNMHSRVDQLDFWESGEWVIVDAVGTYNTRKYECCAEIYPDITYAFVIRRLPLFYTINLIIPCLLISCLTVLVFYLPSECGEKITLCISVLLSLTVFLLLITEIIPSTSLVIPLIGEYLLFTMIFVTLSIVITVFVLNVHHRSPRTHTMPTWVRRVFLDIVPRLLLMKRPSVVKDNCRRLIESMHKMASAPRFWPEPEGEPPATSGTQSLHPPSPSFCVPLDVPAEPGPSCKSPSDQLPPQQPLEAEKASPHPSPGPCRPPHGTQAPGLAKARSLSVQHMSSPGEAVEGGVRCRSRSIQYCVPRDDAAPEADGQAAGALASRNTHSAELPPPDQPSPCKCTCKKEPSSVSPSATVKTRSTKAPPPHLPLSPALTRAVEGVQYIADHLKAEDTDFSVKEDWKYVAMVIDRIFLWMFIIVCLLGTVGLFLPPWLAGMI
T3 sequence (P17787 26-502): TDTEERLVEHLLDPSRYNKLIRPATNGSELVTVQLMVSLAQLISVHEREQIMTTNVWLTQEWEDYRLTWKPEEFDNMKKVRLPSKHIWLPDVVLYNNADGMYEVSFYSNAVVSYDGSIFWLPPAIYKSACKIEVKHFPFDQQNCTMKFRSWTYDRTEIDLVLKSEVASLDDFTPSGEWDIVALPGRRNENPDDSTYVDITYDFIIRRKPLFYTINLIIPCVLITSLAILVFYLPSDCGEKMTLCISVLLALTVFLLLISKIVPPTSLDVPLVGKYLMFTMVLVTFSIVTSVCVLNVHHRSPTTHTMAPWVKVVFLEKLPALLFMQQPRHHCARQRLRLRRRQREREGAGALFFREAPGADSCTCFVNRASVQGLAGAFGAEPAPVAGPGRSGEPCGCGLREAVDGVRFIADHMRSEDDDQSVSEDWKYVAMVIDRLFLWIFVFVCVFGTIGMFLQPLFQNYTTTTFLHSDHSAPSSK
T1 sequence (P02708 21-457): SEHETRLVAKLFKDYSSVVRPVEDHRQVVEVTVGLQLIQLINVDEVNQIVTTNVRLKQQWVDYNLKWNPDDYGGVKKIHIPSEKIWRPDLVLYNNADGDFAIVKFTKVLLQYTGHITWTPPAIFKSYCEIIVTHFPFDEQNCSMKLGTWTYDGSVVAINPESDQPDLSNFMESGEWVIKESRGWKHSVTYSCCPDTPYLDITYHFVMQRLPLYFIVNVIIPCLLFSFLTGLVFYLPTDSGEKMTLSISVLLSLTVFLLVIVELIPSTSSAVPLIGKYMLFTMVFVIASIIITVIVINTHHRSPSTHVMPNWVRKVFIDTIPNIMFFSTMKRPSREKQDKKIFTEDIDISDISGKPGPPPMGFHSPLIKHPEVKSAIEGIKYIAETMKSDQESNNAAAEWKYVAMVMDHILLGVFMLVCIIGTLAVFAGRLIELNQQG
T1 sequence (P11230 24-501 partner): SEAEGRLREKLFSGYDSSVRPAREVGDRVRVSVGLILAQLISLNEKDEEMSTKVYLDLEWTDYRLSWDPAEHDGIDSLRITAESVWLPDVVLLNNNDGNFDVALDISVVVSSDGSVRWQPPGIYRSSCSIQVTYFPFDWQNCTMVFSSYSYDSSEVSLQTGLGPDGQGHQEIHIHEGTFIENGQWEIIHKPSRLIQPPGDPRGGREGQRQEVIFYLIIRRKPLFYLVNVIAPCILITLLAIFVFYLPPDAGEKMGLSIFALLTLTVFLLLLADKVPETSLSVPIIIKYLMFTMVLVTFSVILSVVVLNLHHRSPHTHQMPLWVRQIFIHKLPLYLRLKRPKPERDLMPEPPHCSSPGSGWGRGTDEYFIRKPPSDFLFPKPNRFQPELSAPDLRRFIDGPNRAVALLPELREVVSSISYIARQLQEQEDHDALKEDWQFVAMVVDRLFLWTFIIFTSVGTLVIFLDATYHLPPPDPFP
T1 sequence (Q04844 21-493): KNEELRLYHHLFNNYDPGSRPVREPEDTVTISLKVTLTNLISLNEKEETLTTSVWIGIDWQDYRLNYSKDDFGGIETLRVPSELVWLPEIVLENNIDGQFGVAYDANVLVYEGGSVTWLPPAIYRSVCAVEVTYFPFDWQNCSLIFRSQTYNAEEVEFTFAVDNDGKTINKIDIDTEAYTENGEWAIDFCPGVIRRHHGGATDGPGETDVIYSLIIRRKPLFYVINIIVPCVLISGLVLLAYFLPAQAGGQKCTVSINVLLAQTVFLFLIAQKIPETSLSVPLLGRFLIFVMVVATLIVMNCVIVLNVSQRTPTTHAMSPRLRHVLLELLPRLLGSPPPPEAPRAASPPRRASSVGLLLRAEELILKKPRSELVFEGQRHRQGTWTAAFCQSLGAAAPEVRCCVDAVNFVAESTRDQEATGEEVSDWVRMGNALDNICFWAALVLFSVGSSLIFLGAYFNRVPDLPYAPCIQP
T1 sequence (Q07001 22-517): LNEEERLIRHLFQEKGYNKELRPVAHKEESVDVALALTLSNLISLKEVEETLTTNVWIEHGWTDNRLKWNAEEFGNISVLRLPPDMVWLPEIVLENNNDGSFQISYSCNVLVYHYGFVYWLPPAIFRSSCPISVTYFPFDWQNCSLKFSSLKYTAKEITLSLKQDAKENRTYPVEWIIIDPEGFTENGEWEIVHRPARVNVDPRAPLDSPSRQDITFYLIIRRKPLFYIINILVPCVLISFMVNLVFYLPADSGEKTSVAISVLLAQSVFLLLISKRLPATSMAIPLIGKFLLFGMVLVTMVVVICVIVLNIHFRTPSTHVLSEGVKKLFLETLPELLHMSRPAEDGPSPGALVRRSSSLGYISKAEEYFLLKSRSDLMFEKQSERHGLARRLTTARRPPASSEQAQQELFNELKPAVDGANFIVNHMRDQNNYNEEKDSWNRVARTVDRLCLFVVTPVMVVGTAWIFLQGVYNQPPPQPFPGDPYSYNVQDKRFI

| Compound | α1β1εδ Activity [1] | 5HT3 Activity (5HT3 receptors [2]) | α1β1εδ Inhibition [3] | α4β2 Activity (α4β2 nAChR [4]) | α7 Imax (α7 nAChR [5]) | α4β2 Inhibition (α4β2 nAChR [6]) | 5HT3 Inhibition (5HT3 receptors [7]) | α3β4 Imax (α3β4 nAChR) | also measured |
| --- | --- | --- | --- | --- | --- | --- | --- | --- | --- |
| C[N+]12CCC(CC1)CC2.[I-] [MQN, 1-methyl-1-azoniabicyclo[2.2.2]octane iodide] | N | N | N.S. | N | 1.0 ± 0.1 | 72 ± 4% | N.S. | 0.025 ± 0.006 | agonist character at α7 (α7 nAChR [5]): fully effective; agonist character at α3β4 (α3β4 nAChR): essentially all activity was lost |
| COc1ccc(/C=C2/CN3CCC2CC3)cc1.Cl [MeOBQNE, (E)-3-(4-methoxybenzylidene)-1-azoniabicyclo[2.2.2]-octane chloride] | N | N | 90 ± 2% | N | 0.41 ± 0.03 | 81 ± 2% | 94 ± 5% | <0.01 |  |
| CN1[C@@H]2CCC[C@H]1CC2 [Tropane] |  |  |  |  |  |  |  |  | Effects on 5HT3 Receptors (5HT3 receptors [8]): Neither agonist nor antagonist activity detected |
| C1CN2CCC1CC2 [QN, quinuclidine] | 3% | N | N.S. | ≈2% | 1.03 ± 0.02 | 74 ± 5% | N.S. | 0.64 ± 0.01 | activation of muscle-type nAChRs [1]: detectable activation; Emax (α4β2 nAChR [4]; read-out: α4β2 response, % of the ACh maximal responses): 3.2 ± 0.7%; EC50 (α7 nAChR [5]): 7.2 ± 0.5 µM; agonist character at α7 (α7 nAChR [5]): potent and fully efficacious agonist; selectivity classification (α7 nAChR [5]): non-α7-selective; α7 activation at 300 µM (α7 nAChR [5]): maximal activation; EC50 (α3β4 nAChR): 180 ± 10 µM; agonist character at α3β4 (α3β4 nAChR): partial agonist; α3β4 efficacy, % that of ACh (α3β4 nAChR): 64%; α3β4 response, % of the ACh maximum (α3β4 nAChR): 46 ± 2% |
| O=C(N[C@@H]1C[C@H]2CCN(C2)C1)c1cc2ccoc2cn1 [PHA-709829, N-[(3R,5R)-1-azabicyclo[3.2.1]oct-3-yl]furo[2,3-c]pyridine-5-carboxamide] |  |  |  |  |  |  |  |  | 5HT3 receptors, inhibitory activity at (5HT3 receptors [8]; ref Acker et al., 2008): Inhibitory activity at ≈ 300 nM |
| CC[N+](C)(C)C [ETMA, reference compound] | N | N | N.S. | ≤2% | 1.0 ± 0.1 | 40 ± 9% | N.S. | 0.78 ± 0.04 | EC50 (α7 nAChR [5]; read-out: α7 EC50): 19 ± 2 µM; agonist character at α3β4 (α3β4 nAChR): partial agonists; EC50 (α3β4 nAChR; read-out: α3β4 EC50): 660 ± 90 µM |
| COc1ccc(/C=C2\CN3CCC2CC3)cc1.Cl [MeOBQNZ, (Z)-3-(4-methoxybenzylidene)-1-azoniabicyclo[2.2.2]octane chloride] | ≤1% | N | 76 ± 6% | N | 0.09 ± 0.01 | 56 ± 4% | 80 ± 16% | <0.01 | EC50 (α7 nAChR [5]): 1.1 ± 0.8 µM |
| O=C(Oc1ccc(Br)cc1)N1CCN2CCC1CC2 [SSR-180711] |  |  |  |  |  |  |  |  | agonist character at α7 (Summary) (α7 nAChR [9]): A relatively potent partial agonist with selectivity for α7 compared with other nAChR subtypes tested established by binding and voltage-clamp experiments. |
| CC[N+](C)(C)CC [dEdMA, diethyldimethylammonium] | N | N | N.S. | N | 0.95 ± 0.06 | 52 ± 5% | N.S. | 0.06 ± 0.01 | selectivity classification (α7 nAChR [5]): α7-selective agonists; EC50 (α7 nAChR [5]; read-out: α7 EC50): 197 ± 37 µM; α3β4 efficacy, fold difference (versus ETMA) (α3β4 nAChR): greater than 10 fold |
| C(=C1/CN2CCC1CC2)/c1ccccc1.Cl [BQNZ, (Z)-3-benzylidene-1-azoniabicyclo[2.2.2]octane chloride] | ≈7% | N | N.S. | ≈1% | 0.11 ± 0.01 | 74 ± 6% | 95 ± 4% | 0.10 ± 0.01 | EC50 (α7 nAChR [5]): 7.3 ± 0.7 µM; agonist character at α3β4 (α3β4 nAChR): significant activation |
| O=C(N[C@H]1CN2CCC1CC2)c1cc2ccoc2cn1 [PHA-543,613, N-[(3R)-1-azabicyclo[2.2.2]oct-3-yl]furo[2,3-c]pyridine-5-carboxamide] |  |  |  |  |  |  |  |  | 5HT3 receptors, inhibitory activity at (5HT3 receptors [8]; ref Wishka et al., 2006): Inhibitory activity at ≈ 600 nM |
| CC[N+]12CCC(CC1)CC2.[I-] [EQN, 1-ethyl-1-azoniabicyclo[2.2.2]octane iodide] |  |  |  |  |  |  |  |  | agonist character at α7 (α7 nAChR [5]): weak partial agonist; mecamylamine-sensitive current, % of the total current (α7 nAChR [5]): 58 ± 3%; agonist character at α3β4 (α3β4 nAChR): comparable with the current evoked in uninjected oocytes |
| OCCN1CCCC1 [1-(2-hydroxyethyl)pyrrolidine] |  |  |  |  |  |  |  |  | agonist activity on α7 (α7 nAChR [5]): inactive |
| O=C1NCC2(CN3CCC2CC3)O1 (single isomer, unassigned; (-)) [AR-R17779, (−)-Spiro[1-azabicyclo[2.2.2]octane-3,5′-oxazolidin-2′-one]] |  |  |  |  |  |  |  |  | Effects on 5HT3 Receptors (5HT3 receptors [8]): None |
| C[N+]1(C)CCCC(O)C1 (stereo not shown) [N,N-dimethyl-3-piperidinol] |  |  |  |  |  |  |  |  | agonist activity on α7 (α7 nAChR [5]): inactive |
| quinuclidinone [QN-O] | N | N | N.S. | N | 0.73 ± 0.04 | N.S. | N.S. | ≥0.07± | selectivity classification (α7 nAChR [5]): α7-selective agonists; α7 potency, fold lower than related agonists that lack the oxygen group (e.g., ETMA and QN) (α7 nAChR [5]): at least 10 fold; EC50 (α7 nAChR [5]; read-out: α7 EC50): 78 ± 11 µM; EC50 (α3β4 nAChR; read-out: α3β4 EC50): > 1000 µM |
| C[N+]1(C)CCCCC1 [Dimethyl piperidinium] |  |  |  |  |  |  |  |  | Effects on 5HT3 Receptors (5HT3 receptors [8]): Antagonist activity reported |
| C(=C1\CN2CCC1CC2)/c1ccccc1.Cl [BQNE, E-3-benzylidene-1-azoniabicyclo[2.2.2]-octane chloride] | N | N | 70 ± 7% | N | 0.28 ± 0.01 | 77 ± 2% | 94 ± 5% | <0.01 | selectivity classification (α7 nAChR [5]): α7-selective |
| OCCN1CCCCC1 [1-(2-hydroxyethyl)piperidine] |  |  |  |  |  |  |  |  | agonist activity on α7 (α7 nAChR [5]; 300 µM, data not shown): inactive |
| CN1[C@@H]2CC[C@H]1C[C@@H](OC(=O)c1c[nH]c3ccccc13)C2 [Tropisetron] |  |  |  |  |  |  |  |  | Effects on 5HT3 Receptors (5HT3 receptors [8]; ref Macor et al., 2001, Papke et al., 2005a): Competitive antagonist |
| CC(=O)OCC[N+](C)(C)C [ACh, acetylcholine, reference compound] |  |  |  |  | 1.0 |  |  |  | α3β4 Imax (α3β4 nAChR; peak current, relative to ACh maximum (ACh constrained to 1)): 1.0 |
| CN1[C@@H]2CC[C@H]1CC(=O)C2 [Tropinone] |  |  |  |  |  |  |  |  | Effects on 5HT3 Receptors (5HT3 receptors [8]): Neither agonist nor antagonist activity detected |
| C[N+](C)(C)C [TMA, tetramethyl-ammonium, reference compound] | <2% | N | N.S. | 19 ± 6% | 1.1 ± 0.1 | N.S. | N.S. | 0.55 ± 0.03 | activation of muscle-type nAChRs [1]: detectable activation; selectivity classification (α7 nAChR [5]): non-α7-selective; EC50 (α7 nAChR [5]; read-out: α7 EC50): 30 ± 3 µM; agonist character at α3β4 (α3β4 nAChR): partial agonists; EC50 (α3β4 nAChR; read-out: α3β4 EC50): 350 ± 190 µM |
